# Data published in PubChem BioAssay (NCI).
#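 Grown in 96-well plates, cells were treated for 48 hours with each compound at five concentrations. Insufficient inhibition: endpoint recorded as highest concentration tested. TGI: concentration producing complete growth inhibition.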
# Tested on: SF-539 CNS
# Assay: inhibition of tumour cell growth, NCI panel, 48 h
row,Compound,TGI [µM]
1,Nc1cc2c3c(cccc3c1)C(=O)N(c1ccc(OCCN3CCCC3)cc1)C2=O,27.8
2,Cc1cc2ccc(N)nc2[nH]c1=O,> 100
3,O=C(N/N=C\c1ccc([N+](=O)[O-])s1)c1ccncc1,43.3
4,C=C1C(=O)OC2C3OC(C)(CCC(O)C3COC(C)=O)CC(OC(=O)/C(=C/C)COC(C)=O)C12 (stereo unspecified),3.22
5,COc1ccccc1NC(=S)N/N=C/c1cccc(C)n1,28.1
6,CCOC(=O)/C=C/[C@@H](CC)O[Si](C(C)C)(C(C)C)C(C)C,> 100
7,Cc1c(O)c(=O)ccn1CCc1ccc(O)cc1,62.5

# Tested on: SNB-19 CNS
# Assay: inhibition of tumour cell growth, NCI panel, 48 h
row,Compound,TGI [µM]
1,Nc1cc2c3c(cccc3c1)C(=O)N(c1ccc(OCCN3CCCC3)cc1)C2=O,41.9
2,Cc1cc2ccc(N)nc2[nH]c1=O,> 100
3,O=C(N/N=C\c1ccc([N+](=O)[O-])s1)c1ccncc1,> 77.4
4,C=C1C(=O)OC2C3OC(C)(CCC(O)C3COC(C)=O)CC(OC(=O)/C(=C/C)COC(C)=O)C12 (stereo unspecified),18.3
5,COc1ccccc1NC(=S)N/N=C/c1cccc(C)n1,> 100
6,CCOC(=O)/C=C/[C@@H](CC)O[Si](C(C)C)(C(C)C)C(C)C,> 100
7,Cc1c(O)c(=O)ccn1CCc1ccc(O)cc1,> 100

# Tested on: A498 renal
# Assay: inhibition of tumour cell growth, NCI panel, 48 h
row,Compound,TGI [µM]
1,Nc1cc2c3c(cccc3c1)C(=O)N(c1ccc(OCCN3CCCC3)cc1)C2=O,91.5
2,O=C(N/N=C\c1ccc([N+](=O)[O-])s1)c1ccncc1,53
3,C=C1C(=O)OC2C3OC(C)(CCC(O)C3COC(C)=O)CC(OC(=O)/C(=C/C)COC(C)=O)C12 (stereo unspecified),3.05
4,COc1ccccc1NC(=S)N/N=C/c1cccc(C)n1,69.7
5,CCOC(=O)/C=C/[C@@H](CC)O[Si](C(C)C)(C(C)C)C(C)C,> 100

# Tested on: 786-0 renal
# Assay: inhibition of tumour cell growth, NCI panel, 48 h
row,Compound,TGI [µM]
1,Nc1cc2c3c(cccc3c1)C(=O)N(c1ccc(OCCN3CCCC3)cc1)C2=O,31.5
2,Cc1cc2ccc(N)nc2[nH]c1=O,> 100
3,O=C(N/N=C\c1ccc([N+](=O)[O-])s1)c1ccncc1,48.8
4,C=C1C(=O)OC2C3OC(C)(CCC(O)C3COC(C)=O)CC(OC(=O)/C(=C/C)COC(C)=O)C12 (stereo unspecified),0.394
5,COc1ccccc1NC(=S)N/N=C/c1cccc(C)n1,96.9
6,CCOC(=O)/C=C/[C@@H](CC)O[Si](C(C)C)(C(C)C)C(C)C,> 100
7,Cc1c(O)c(=O)ccn1CCc1ccc(O)cc1,27.8

# Tested on: OVCAR-8 ovarian
# Assay: inhibition of tumour cell growth, NCI panel, 48 h
row,Compound,TGI [µM]
1,Nc1cc2c3c(cccc3c1)C(=O)N(c1ccc(OCCN3CCCC3)cc1)C2=O,35.8
2,Cc1cc2ccc(N)nc2[nH]c1=O,> 100
3,O=C(N/N=C\c1ccc([N+](=O)[O-])s1)c1ccncc1,49.2
4,C=C1C(=O)OC2C3OC(C)(CCC(O)C3COC(C)=O)CC(OC(=O)/C(=C/C)COC(C)=O)C12 (stereo unspecified),20
5,COc1ccccc1NC(=S)N/N=C/c1cccc(C)n1,> 52.3
6,CCOC(=O)/C=C/[C@@H](CC)O[Si](C(C)C)(C(C)C)C(C)C,> 100
7,Cc1c(O)c(=O)ccn1CCc1ccc(O)cc1,> 100

# Tested on: U251 CNS
# Assay: inhibition of tumour cell growth, NCI panel, 48 h
row,Compound,TGI [µM]
1,Nc1cc2c3c(cccc3c1)C(=O)N(c1ccc(OCCN3CCCC3)cc1)C2=O,64.6
2,Cc1cc2ccc(N)nc2[nH]c1=O,> 100
3,O=C(N/N=C\c1ccc([N+](=O)[O-])s1)c1ccncc1,> 63.8
4,C=C1C(=O)OC2C3OC(C)(CCC(O)C3COC(C)=O)CC(OC(=O)/C(=C/C)COC(C)=O)C12 (stereo unspecified),2.88
5,COc1ccccc1NC(=S)N/N=C/c1cccc(C)n1,> 87.1
6,CCOC(=O)/C=C/[C@@H](CC)O[Si](C(C)C)(C(C)C)C(C)C,> 100
7,Cc1c(O)c(=O)ccn1CCc1ccc(O)cc1,> 100

# Tested on: SK-OV-3 ovarian
# Assay: inhibition of tumour cell growth, NCI panel, 48 h
row,Compound,TGI [µM]
1,Nc1cc2c3c(cccc3c1)C(=O)N(c1ccc(OCCN3CCCC3)cc1)C2=O,42
2,Cc1cc2ccc(N)nc2[nH]c1=O,> 100
3,O=C(N/N=C\c1ccc([N+](=O)[O-])s1)c1ccncc1,> 100
4,C=C1C(=O)OC2C3OC(C)(CCC(O)C3COC(C)=O)CC(OC(=O)/C(=C/C)COC(C)=O)C12 (stereo unspecified),19.6
5,COc1ccccc1NC(=S)N/N=C/c1cccc(C)n1,> 44.4
6,CCOC(=O)/C=C/[C@@H](CC)O[Si](C(C)C)(C(C)C)C(C)C,> 100
7,Cc1c(O)c(=O)ccn1CCc1ccc(O)cc1,> 100

# Tested on: OVCAR-4 ovarian
# Assay: inhibition of tumour cell growth, NCI panel, 48 h
row,Compound,TGI [µM]
1,Nc1cc2c3c(cccc3c1)C(=O)N(c1ccc(OCCN3CCCC3)cc1)C2=O,33.8
2,O=C(N/N=C\c1ccc([N+](=O)[O-])s1)c1ccncc1,30.2
3,C=C1C(=O)OC2C3OC(C)(CCC(O)C3COC(C)=O)CC(OC(=O)/C(=C/C)COC(C)=O)C12 (stereo unspecified),12.3
4,COc1ccccc1NC(=S)N/N=C/c1cccc(C)n1,> 100
5,CCOC(=O)/C=C/[C@@H](CC)O[Si](C(C)C)(C(C)C)C(C)C,> 100
6,Cc1c(O)c(=O)ccn1CCc1ccc(O)cc1,76.2

# Tested on: M14 melanoma
# Assay: inhibition of tumour cell growth, NCI panel, 48 h
row,Compound,TGI [µM]
1,Nc1cc2c3c(cccc3c1)C(=O)N(c1ccc(OCCN3CCCC3)cc1)C2=O,51.2
2,Cc1cc2ccc(N)nc2[nH]c1=O,> 100
3,O=C(N/N=C\c1ccc([N+](=O)[O-])s1)c1ccncc1,25.2
4,C=C1C(=O)OC2C3OC(C)(CCC(O)C3COC(C)=O)CC(OC(=O)/C(=C/C)COC(C)=O)C12 (stereo unspecified),1.01
5,COc1ccccc1NC(=S)N/N=C/c1cccc(C)n1,9.43
6,Cc1c(O)c(=O)ccn1CCc1ccc(O)cc1,53

# Tested on: HCT-116 colon
# Assay: inhibition of tumour cell growth, NCI panel, 48 h
row,Compound,TGI [µM]
1,Nc1cc2c3c(cccc3c1)C(=O)N(c1ccc(OCCN3CCCC3)cc1)C2=O,40.9
2,Cc1cc2ccc(N)nc2[nH]c1=O,> 100
3,O=C(N/N=C\c1ccc([N+](=O)[O-])s1)c1ccncc1,19.5
4,C=C1C(=O)OC2C3OC(C)(CCC(O)C3COC(C)=O)CC(OC(=O)/C(=C/C)COC(C)=O)C12 (stereo unspecified),0.216
5,COc1ccccc1NC(=S)N/N=C/c1cccc(C)n1,> 100
6,CCOC(=O)/C=C/[C@@H](CC)O[Si](C(C)C)(C(C)C)C(C)C,> 100
7,Cc1c(O)c(=O)ccn1CCc1ccc(O)cc1,> 100

# Tested on: HCT-15 colon
# Assay: inhibition of tumour cell growth, NCI panel, 48 h
row,Compound,TGI [µM]
1,Nc1cc2c3c(cccc3c1)C(=O)N(c1ccc(OCCN3CCCC3)cc1)C2=O,26.8
2,Cc1cc2ccc(N)nc2[nH]c1=O,> 100
3,O=C(N/N=C\c1ccc([N+](=O)[O-])s1)c1ccncc1,> 44
4,C=C1C(=O)OC2C3OC(C)(CCC(O)C3COC(C)=O)CC(OC(=O)/C(=C/C)COC(C)=O)C12 (stereo unspecified),0.141
5,COc1ccccc1NC(=S)N/N=C/c1cccc(C)n1,> 100
6,CCOC(=O)/C=C/[C@@H](CC)O[Si](C(C)C)(C(C)C)C(C)C,> 100
7,Cc1c(O)c(=O)ccn1CCc1ccc(O)cc1,> 100

# Tested on: SF-268 CNS
# Assay: inhibition of tumour cell growth, NCI panel, 48 h
row,Compound,TGI [µM]
1,Nc1cc2c3c(cccc3c1)C(=O)N(c1ccc(OCCN3CCCC3)cc1)C2=O,> 59.7
2,Cc1cc2ccc(N)nc2[nH]c1=O,> 100
3,O=C(N/N=C\c1ccc([N+](=O)[O-])s1)c1ccncc1,55
4,C=C1C(=O)OC2C3OC(C)(CCC(O)C3COC(C)=O)CC(OC(=O)/C(=C/C)COC(C)=O)C12 (stereo unspecified),7.84
5,COc1ccccc1NC(=S)N/N=C/c1cccc(C)n1,> 100
6,CCOC(=O)/C=C/[C@@H](CC)O[Si](C(C)C)(C(C)C)C(C)C,> 100
7,Cc1c(O)c(=O)ccn1CCc1ccc(O)cc1,33.3

# Tested on: K-562 leukemia
# Assay: inhibition of tumour cell growth, NCI panel, 48 h
row,Compound,TGI [µM]
1,Nc1cc2c3c(cccc3c1)C(=O)N(c1ccc(OCCN3CCCC3)cc1)C2=O,49.2
2,C=C1C(=O)OC2C3OC(C)(CCC(O)C3COC(C)=O)CC(OC(=O)/C(=C/C)COC(C)=O)C12 (stereo unspecified),6.42
3,COc1ccccc1NC(=S)N/N=C/c1cccc(C)n1,> 100
4,CCOC(=O)/C=C/[C@@H](CC)O[Si](C(C)C)(C(C)C)C(C)C,> 100
5,Cc1c(O)c(=O)ccn1CCc1ccc(O)cc1,> 100

# Tested on: LOX IMVI melanoma
# Assay: inhibition of tumour cell growth, NCI panel, 48 h
row,Compound,TGI [µM]
1,Nc1cc2c3c(cccc3c1)C(=O)N(c1ccc(OCCN3CCCC3)cc1)C2=O,48.5
2,C=C1C(=O)OC2C3OC(C)(CCC(O)C3COC(C)=O)CC(OC(=O)/C(=C/C)COC(C)=O)C12 (stereo unspecified),0.342
3,COc1ccccc1NC(=S)N/N=C/c1cccc(C)n1,> 100
4,CCOC(=O)/C=C/[C@@H](CC)O[Si](C(C)C)(C(C)C)C(C)C,> 100
5,Cc1c(O)c(=O)ccn1CCc1ccc(O)cc1,53.9

# Tested on: DU-145 prostate
# Assay: inhibition of tumour cell growth, NCI panel, 48 h
row,Compound,TGI [µM]
1,Nc1cc2c3c(cccc3c1)C(=O)N(c1ccc(OCCN3CCCC3)cc1)C2=O,> 92.8
2,Cc1cc2ccc(N)nc2[nH]c1=O,> 100
3,O=C(N/N=C\c1ccc([N+](=O)[O-])s1)c1ccncc1,79.3
4,C=C1C(=O)OC2C3OC(C)(CCC(O)C3COC(C)=O)CC(OC(=O)/C(=C/C)COC(C)=O)C12 (stereo unspecified),2.04
5,COc1ccccc1NC(=S)N/N=C/c1cccc(C)n1,> 100
6,CCOC(=O)/C=C/[C@@H](CC)O[Si](C(C)C)(C(C)C)C(C)C,> 100
